Experimental data as given in ChEMBL document CHEMBL1151449, “In vitro activity of DC-159a, a new broad-spectrum fluoroquinolone, compared with that of other agents against drug-susceptible and -resistant pneumococci” (2008).
Values after ≈ are worked out from the molar mass of the structure shown.

Legend:
Assay type in all cases: functional
[1] = system: Streptococcus pneumoniae; assay: Antibacterial activity against Streptococcus pneumoniae HMC 1070 harboring S81F mutation in quinolone-resistant determining regions of GyrA gene, D83N mutation in QRDR of ParC gene and I460V mutation in QRDR of ParE gene by agar dilution method
[2] = system: Streptococcus pneumoniae; assay: Antibacterial activity against Streptococcus pneumoniae HMC 1076 harboring S81F mutation in quinolone-resistant determining regions of GyrA gene, D83N mutation in QRDR of ParC gene and I460V mutation in QRDR of ParE gene by agar dilution method
[3] = system: Streptococcus pneumoniae; assay: Antibacterial activity against Streptococcus pneumoniae HMC 1146 harboring S81F mutation in quinolone-resistant determining regions of GyrA gene, and D435N mutation in QRDR of ParE gene by agar dilution method
[4] = system: Streptococcus pneumoniae; assay: Antibacterial activity against Streptococcus pneumoniae HMC 1150 harboring S81C mutation in quinolone-resistant determining regions of GyrA gene, S79F mutation in QRDR of ParC gene and I460V mutation in QRDR of ParE gene by agar dilution method
[5] = system: Streptococcus pneumoniae; assay: Antibacterial activity against Streptococcus pneumoniae HMC 2538 harboring S81Y mutation in quinolone-resistant determining regions of GyrA gene, S79F, K137N mutation in QRDR of ParC gene and I460V mutation in QRDR of ParE gene showing efflux to ciprofloxacin, levofloxacin, gatifloxacin by agar dilution method
[6] = system: Streptococcus pneumoniae; assay: Antibacterial activity against Streptococcus pneumoniae HMC 1059 harboring S81F mutation in quinolone-resistant determining regions of GyrA gene, S79F, K137N mutation in QRDR of ParC gene and I460N mutation in QRDR of ParE gene by agar dilution method
[7] = system: Streptococcus pneumoniae; assay: Antibacterial activity against Streptococcus pneumoniae HMC 1072 harboring S81F mutation in quinolone-resistant determining regions of GyrA gene, S79Y mutation in QRDR of ParC gene and I460V mutation in QRDR of ParE gene by agar dilution method
[8] = system: Streptococcus pneumoniae; assay: Antibacterial activity against Streptococcus pneumoniae HMC 1077 harboring S81Y and S79F mutation in quinolone-resistant determining regions of GyrA and ParC genes respectively by agar dilution method
[9] = system: Streptococcus pneumoniae; assay: Antibacterial activity against penicillin-resistant and quinolone-susceptible Streptococcus pneumoniae HMC 3583 expressing mefA by broth microdilution method
[10] = system: Streptococcus pneumoniae; assay: Antibacterial activity against penicillin-, quinolone-resistant Streptococcus pneumoniae HMC 1541 harboring mutation in L4 protein by broth microdilution method
[11] = system: Streptococcus pneumoniae; assay: Antibacterial activity against macrolide-, quinolone-susceptible and penicillin-intermediate Streptococcus pneumoniae HMC 100 after 50 passages by broth microdilution method
[12] = system: Streptococcus pneumoniae; assay: Antibacterial activity against penicillin-susceptible, quinolone-resistant Streptococcus pneumoniae HMC 1072 expressing ermB and harboring S81F mutation in quinolone-resistant determining regions of GyrA gene, S79Y mutation in QRDR of ParC gene and I460V mutation in QRDR of ParE gene after 50 passages by broth microdilution method
[13] = system: Streptococcus pneumoniae; assay: Antibacterial activity against macrolide-, quinolone-susceptible and penicillin-intermediate Streptococcus pneumoniae HMC 99 harboring S81Y and S79Y mutation in quinolone-resistant determining regions of GyrA and ParC genes respectively after 41 passages with moxifloxacin measured after 10 daily antibiotic-free subculturing by multi-step resistance selection technique
[14] = system: Streptococcus pneumoniae; assay: Antibacterial activity against macrolide-, quinolone-susceptible and penicillin-intermediate Streptococcus pneumoniae HMC 100 harboring S81Y and S79Y mutation in quinolone-resistant determining regions of GyrA and ParC genes respectively after 42 passages with levofloxacin measured after 10 daily antibiotic-free subculturing by multi-step resistance selection technique
[15] = system: Streptococcus pneumoniae; assay: Antibacterial activity against penicillin-resistant and quinolone-susceptible Streptococcus pneumoniae HMC 228 expressing ermB and harboring S81F mutation in quinolone-resistant determining regions of GyrA gene, D83N mutation in QRDR of ParC gene and I460V mutation in QRDR of ParE gene after 28 passages with DC-159a measured after 10 daily antibiotic-free subculturing by multi-step resistance selection technique
[16] = system: Streptococcus pneumoniae; assay: Antibacterial activity against penicillin-resistant and quinolone-susceptible Streptococcus pneumoniae HMC 228 expressing ermB and harboring S81F mutation in quinolone-resistant determining regions of GyrA gene, S79Y mutation in QRDR of ParC gene and I460V mutation in QRDR of ParE gene after 36 passages with moxifloxacin measured after 10 daily antibiotic-free subculturing by multi-step resistance selection technique
[17] = system: Streptococcus pneumoniae; assay: Antibacterial activity against penicillin-resistant and quinolone-susceptible Streptococcus pneumoniae HMC 3583 expressing mefA and harboring S81F mutation in quinolone-resistant determining regions of GyrA gene, D83N mutation in QRDR of ParC gene and I460V mutation in QRDR of ParE gene after 49 passages with DC-159a measured after 10 daily antibiotic-free subculturing by multi-step resistance selection technique
[18] = system: Streptococcus pneumoniae; assay: Antibacterial activity against penicillin-resistant and quinolone-susceptible Streptococcus pneumoniae HMC 3583 expressing mefA and harboring S81F mutation in quinolone-resistant determining regions of GyrA gene and I460V, D435N mutation in QRDR of ParE gene after 46 passages with gatifloxacin measured after 10 daily antibiotic-free subculturing by multi-step resistance selection technique
[19] = system: Streptococcus pneumoniae; assay: Antibacterial activity against azithromycin-susceptible Streptococcus pneumoniae ATCC 49619 by agar dilution method
[20] = system: Streptococcus pneumoniae; assay: Antibacterial activity against azithromycin-resistant Streptococcus pneumoniae […] by agar dilution method
[21] = system: Streptococcus pneumoniae; assay: Antibacterial activity against quinolone-susceptible Streptococcus pneumoniae ATCC 49619 by agar dilution method
[22] = system: Streptococcus pneumoniae; assay: Antibacterial activity against Streptococcus pneumoniae HMC 1156 harboring S81F and S79F mutation in quinolone-resistant determining regions of GyrA and ParC genes respectively showing efflux to ciprofloxacin, gemifloxacin by agar dilution method
[23] = system: Streptococcus pneumoniae; assay: Antibacterial activity against penicillin-, macrolide-susceptible and quinolone-resistant Streptococcus pneumoniae HMC 1074 harboring S81F mutation in quinolone-resistant determining regions of GyrA gene, S79F mutation in QRDR of ParC gene and I460V mutation in QRDR of ParE gene by broth microdilution method
[24] = system: Streptococcus pneumoniae; assay: Antibacterial activity against macrolide-, quinolone-susceptible and penicillin-intermediate Streptococcus pneumoniae HMC 99 by broth microdilution method
[25] = system: Streptococcus pneumoniae; assay: Antibacterial activity against quinolone-susceptible and penicillin-intermediate Streptococcus pneumoniae HMC 441 expressing ermB by broth microdilution method
[26] = system: Streptococcus pneumoniae; assay: Antibacterial activity against quinolone-susceptible and penicillin-intermediate Streptococcus pneumoniae HMC 5048 expressing mefA by broth microdilution method
[27] = system: Streptococcus pneumoniae; assay: Antibacterial activity against penicillin-, macrolide-susceptible and quinolone-resistant Streptococcus pneumoniae HMC 1074 harboring S81F, E85K mutation in quinolone-resistant determining regions of GyrA gene, S79F mutation in QRDR of ParC gene and I460V mutation in QRDR of ParE gene after 27 passages with gemifloxacin measured after 10 daily antibiotic-free subculturing by multi-step resistance selection technique

Row | Compound | MIC [1] | MIC [2] | MIC [3] | MIC [4] | MIC [5] | MIC [6] | MIC [7] | MIC [8] | MIC [9] | MIC [10] | MIC [12] | MIC [13] | MIC [14] | MIC [15] | MIC [16] | MIC [17] | MIC [18] | MIC [22] | MIC [25] | MIC [27] | other results
1 | COc1c(N2CCNC(C)C2)c(F)cc2c(=O)c(C(=O)O)cn(C3CC3)c12 (stereo not drawn) [GATIFLOXACIN] | 4 µg/mL (≈ 10.7 µM) | 4 µg/mL (≈ 10.7 µM) | 4 µg/mL (≈ 10.7 µM) | 4 µg/mL (≈ 10.7 µM) | 8 µg/mL (≈ 21.3 µM) | 8 µg/mL (≈ 21.3 µM) | 8 µg/mL (≈ 21.3 µM) | 8 µg/mL (≈ 21.3 µM) | 0.25 µg/mL (≈ 0.666 µM) | 4 µg/mL (≈ 10.7 µM) | 8 µg/mL (≈ 21.3 µM) | 16 µg/mL (≈ 42.6 µM) | 8 µg/mL (≈ 21.3 µM) | 4 µg/mL (≈ 10.7 µM) | 16 µg/mL (≈ 42.6 µM) | 4 µg/mL (≈ 10.7 µM) | 8 µg/mL (≈ 21.3 µM) | 8 µg/mL (≈ 21.3 µM) | 0.25 µg/mL (≈ 0.666 µM) | 16 µg/mL (≈ 42.6 µM) | MIC [11]: 0.5 µg/mL (≈ 1.33 µM); MIC50 [19]: 0.5 µg/mL (≈ 1.33 µM); MIC90 [19]: 4 µg/mL (≈ 10.7 µM); MIC50 [20]: 0.5 µg/mL (≈ 1.33 µM); MIC90 [20]: 0.5 µg/mL (≈ 1.33 µM); MIC50 [21]: 0.5 µg/mL (≈ 1.33 µM); MIC90 [21]: 0.5 µg/mL (≈ 1.33 µM); MIC [23]: 4 µg/mL (≈ 10.7 µM); MIC [24]: 0.12 µg/mL (≈ 0.32 µM); MIC [26]: 0.25 µg/mL (≈ 0.666 µM)
2 | CO/N=C1\CN(c2nc3c(cc2F)c(=O)c(C(=O)O)cn3C2CC2)CC1CN (stereo not drawn) [GEMIFLOXACIN] | 0.25 µg/mL (≈ 0.642 µM) | 0.5 µg/mL (≈ 1.28 µM) | 0.5 µg/mL (≈ 1.28 µM) | 0.25 µg/mL (≈ 0.642 µM) | 0.25 µg/mL (≈ 0.642 µM) | 0.5 µg/mL (≈ 1.28 µM) | 0.5 µg/mL (≈ 1.28 µM) | 0.25 µg/mL (≈ 0.642 µM) | 0.03 µg/mL (≈ 0.077 µM) | 0.5 µg/mL (≈ 1.28 µM) | 1 µg/mL (≈ 2.57 µM) | 1 µg/mL (≈ 2.57 µM) | 0.5 µg/mL (≈ 1.28 µM) | 1 µg/mL (≈ 2.57 µM) | 2 µg/mL (≈ 5.14 µM) | 4 µg/mL (≈ 10.3 µM) | 8 µg/mL (≈ 20.5 µM) | 0.1 µg/mL (≈ 0.257 µM) | 0.016 µg/mL (≈ 0.0411 µM) | 2 µg/mL (≈ 5.14 µM) | MIC50 [19]: 0.03 µg/mL (≈ 0.077 µM); MIC90 [19]: 0.25 µg/mL (≈ 0.642 µM); MIC50 [20]: 0.03 µg/mL (≈ 0.077 µM); MIC90 [20]: 0.06 µg/mL (≈ 0.154 µM); MIC50 [21]: 0.03 µg/mL (≈ 0.077 µM); MIC90 [21]: 0.06 µg/mL (≈ 0.154 µM); MIC [23]: 0.25 µg/mL (≈ 0.642 µM); MIC [24]: 0.06 µg/mL (≈ 0.154 µM); MIC [26]: 0.03 µg/mL (≈ 0.077 µM)
3 | COc1c(N2C[C@@H]3CCCN[C@@H]3C2)c(F)cc2c(=O)c(C(=O)O)cn(C3CC3)c12 [MOXIFLOXACIN] | 4 µg/mL (≈ 9.96 µM) | 2 µg/mL (≈ 4.98 µM) | 2 µg/mL (≈ 4.98 µM) | 1 µg/mL (≈ 2.49 µM) | 2 µg/mL (≈ 4.98 µM) | 4 µg/mL (≈ 9.96 µM) | 4 µg/mL (≈ 9.96 µM) | 4 µg/mL (≈ 9.96 µM) | – | 4 µg/mL (≈ 9.96 µM) | 4 µg/mL (≈ 9.96 µM) | 4 µg/mL (≈ 9.96 µM) | 4 µg/mL (≈ 9.96 µM) | 2 µg/mL (≈ 4.98 µM) | 2 µg/mL (≈ 4.98 µM) | 2 µg/mL (≈ 4.98 µM) | 4 µg/mL (≈ 9.96 µM) | 4 µg/mL (≈ 9.96 µM) | 0.12 µg/mL (≈ 0.299 µM) | 16 µg/mL (≈ 39.9 µM) | –
